From US20050095305A1, “Anti-aging agents” (priority 2001, published 2005)

What was measured:
Format in all cases: biochemical
[1] = Activity against free radicals, Method A (DPPH° test); details: optical density at 513 nm
Procedure: (§1) The effectiveness of the test substances against free radicals was tested by various chemical and biochemical methods: • Method A A first test was carried out using diphenylpicrylhydrazyl (DPPH°) which is a relatively stable radical that forms a purple-colored solution. The optical density (DO) at 513 nm was determined. • Method B Hydroxyl radicals were released from hydrogen peroxide in the presence of iron(II) ions and EDTA and were used to oxidize deoxyribose. The oxidation product forms a pink-colored compound with thiobarbituric acid. Its concentration corresponds to the optical density at 532 nm. […] The superoxide anions dismute into hydrogen peroxide and oxygen either spontaneously or in the presence of Superoxid Dismutase. The quantity of superoxide anion can be determined by NBT reduction via the optical density at 490 nm. A test was conducted to determine whether fewer superoxide anions are generated or more anions are destroyed in the presence of the test substances. The results are set out in Table 1 and represent the EC50 values in % (w/v).

[2] = Activity against free radicals, Method B (hydroxyl radicals, deoxyribose oxidation with EDTA); details: hydrogen peroxide, iron(II) ions and EDTA, optical density at 532 nm
Procedure: as §1

[3] = Activity against free radicals, Method C (deoxyribose oxidation in the absence of EDTA); details: as Method B in the absence of EDTA
Procedure: as §1

[4] = Activity against free radicals, Method D (xanthine oxidase, NBT reduction); details: optical density at 490 nm
Procedure: as §1

Molecule	Effect against free radicals, Method A, EC50 [1]	Effect against free radicals, Method B, EC50 [2]	Effect against free radicals, Method C, EC50 [3]	Effect against free radicals, Method D, EC50 [4]
O=C1O[C@H]([C@@H](O)CO)C(O)=C1O [Ascorbic acid]	0.0013 % (w/v)	0.261 % (w/v)	0.9 % (w/v)	0.591 % (w/v)
Tocopherol	0.0067 % (w/v)			No effect
